Test results reported in patent US8198293B2, “Oxymatrine compositions and related methods for treating and preventing chronic infectious diseases” (priority 2008, dated 2012).

How the values were obtained:
hepatitis B virus = settings: HBV transgenic mice, cited from earlier work
coxsackievirus B = settings: in vitro, cell cultures; mechanism not defined; cited from earlier work
enterovirus = experiment: Case reports: diarrhea with viral/enterovirus protein in colon biopsy (Examples 11, 12); type: in vivo, human
Source text: A person developed continuing watery diarrhea, as many as twenty episodes a day, and mild fatigue for three months. Laboratory studies and stool work-up were completely negative. […] They failed Asacol therapy.
A person developed severe watery diarrhea for two months. Stool evaluation was unremarkable. […] They continued to do well for six months on the medication. A decrease of medication to half the dose cause a relapse of the symptoms, which resolved after increasing the dosage.

[1] = system: cytokine gene expression (Th1/Th2); experiment: Cytokine gene expression study before and during/after oxymatrine; type: in vivo, human
Source text: FIG. 4 graphically illustrates a cytokine gene expression study before and after oxymatrine (RQ is the gene expression ratio).
FIG. 5 graphically illustrates cytokine gene expression of interleukin-12P35+P40/interleukin-10 in tissue from CFS patients at the start of (pre-oxymatrine) and during oxymatrine therapy (n=17).
A cytokine gene expression study on blood samples before (Sample 2) and after (Sample 3) taking oxymatrine for 15 months in one patient, is graphically illustrated in FIG. 4. […] FIG. 5 illustrates that neutralizing antibodies CBV 3 and CBV 4 were obtained serially over a three year period (performed by ARUP laboratory, Salt Lake City, Utah).

[2] = system: Varicella-Zoster Virus (VZV); experiment: Case report: chronic recurrent Varicella-Zoster Virus infection (shingles); type: in vivo, human; settings: Example 9 patient, 200 mg bid
Procedure: A person developed recurrent shingles after multiple episodes of sinus infections and sinus surgeries. They also had chronic indigestion and nausea. Fatigue became so severe that they were bedridden for several years.
Coxsackievirus B4 antibody was 1:320. […] The patient was started on oxymatrine 200 mg bid.

[3] = system: chronic enterovirus infection / chronic fatigue; experiment: Case reports: treatment of chronic fatigue (Examples 2-5); type: in vivo, human
Procedure: A person with episodes of diarrhea while traveling to Tonga developed severe respiratory infection soon thereafter. The symptoms consisted of fevers to 105° F., night sweats, diffuse myalgia, tachycardia, fatigue, sinus congestion and cough, and unresponsiveness to antibiotics. The patient developed profound fatigue thereafter and went on total disability three months after the onset of symptoms. Initial Coxsackie B virus (CBV) 3, CVB4 and echovirus 9 antibody titers were 1:320, 1:160, 1:80 (normal <1:10), respectively.
The patient could not work for the next 18 months. They were started on oxymatrine at 300 mg twice a day (bid). After taking oxymatrine for two months, they were able to take short walks, but still exhausted after one hour of activity requiring five hour naps. At the end of three months of therapy, they started having fevers of 104-105° F. for several days with marked decrease in diffuse myalgia. […] CVB3, CVB4 and echovirus antibody three months after therapy were 1:160, 1:160 and 1:20, respectively.
A person who had recurrent episodes of debilitating fatigue became totally incapacitated after approximately 17 years. […] They went into remission but relapsed nine months later after developing a minor upper respiratory infection. They improved minimally after several months of bed rest, but was barely able to work six hours per day. They had brain fog, myalgia ( 7/10 pain) and was barely able to walk even 1-2 blocks.
Three days after taking oxymatrine at a dose of 300 mg bid, the myalgia intensified ( 10/10 pain), especially one hour after taking the pills. One week after starting oxymatrine, routine laboratory tests including CBC, chemistry panel and creatine phosphokinase (CPK) were normal. They continued having significant fatigue and myalgia for the next three weeks, but the symptoms resolved one week after stopping the medication. Mild increase in myalgia recurred three days after resuming oxymatrine, but resolved after continuing the medication for the next two weeks. The patient felt well at the end of three months with minimal discomfort in a few muscle groups.
Severe myalgia recurred after resuming vigorous exercise for three weeks while taking oxymatrine. They had to stop exercise for the two months allowing cessation of myalgia. After taking oxymatrine for six months, the patient felt well. Over the next six months after stopping the medication, the patient continuously performed heavy physical activities without significant difficulty. After developing another episode of upper respiratory symptoms, their symptoms relapsed. They have resumed oxymatrine but experienced increasing myalgia as the fatigue improved.
A person with a known history of frequent respiratory infections and vasovagal syncope developed respiratory infection, which was followed by bedridden fatigue. Enteroviral protein was detected in the stomach biopsy consistent with chronic enterovirus infection. […] After vigorous exercise, they would still have relapses of bedridden fatigue for one day but continued to work 10-12 hours per day for the next 12 months, walking two miles per day. Laboratory tests were normal while on therapy.
A person developed debilitating fatigue, sore throat, oral ulcers, vertigo, headaches and cognitive dysfunction two months after having a flu-like illness. […] Approximately four years later, the patient started taking oxymatrine. After an initial increase of gastrointestinal symptoms for the first two weeks, the patient tolerated 500 mg per day of oxymatrine.
The symptoms continued for two weeks and resolved after stopping oxymatrine. […] They continued to improve for 12 months after taking the medication.

[4] = system: Mycobacterium avium complex (MAC); experiment: Case report: Mycobacterium avium complex infection of the lung; type: in vivo, human
Procedure: A person with known history of Mycobacterium avium complex (MAC) infection of the lung and bronchiectasis for several years was treated with clarithromycin, ethambutol, ciprofloxacin and rifabutin for about five years. […] Intravenous amikacin was added following right middle and left lingula lobectomy. In spite of the above therapy, sputum and repeat bronchial washing obtained by bronchoscopy grew MAC within three weeks. A computed tomography scan of the chest remained unchanged except for the post-surgical changes.
Because of persistent positive cultures despite the four drug therapies, the patient was started on oxymatrine, which they tolerated well. […] Sputum became clear in color then resolved. About two months after the start of oxymatrine, the patient had fevers, flu-like symptoms, increase in non-productive cough, bilateral uveitis and elevation of liver enzymes to 3.5 times normal values. The symptoms lasted two weeks and resolved after tapering dose of oxymatrine to 200 mg bid. Liver enzymes returned to normal within six weeks. […] The anti-MAC medications were discontinued after […] of oxymatrine therapy. The dose of oxymatrine was tapered to 100 mg tid at four and a half months of therapy and then stopped after six months of total therapy. The patient felt well at the six month follow-up.

[5] = compared to placebo-treated animals
[6] = blood samples of one patient before and after 15 months of oxymatrine (FIG. 4)

O=C1CCC[C@@H]2[C@H]3CCC[N@+]4([O-])CCC[C@@H](CN12)[C@@H]34 [oxymatrine]
level of gamma interferon (hepatitis B virus; [5]): increased more than three-fold
level of interleukin-2 (hepatitis B virus; [5]): increased more than three-fold
level of interleukin-4 (hepatitis B virus; [5]): decreased more than three-fold
level of interleukin-10 (hepatitis B virus; [5]): decreased more than three-fold
effect on hepatitis B viremia, mRNA and protein levels (hepatitis B virus): No effect
growth inhibition of coxsackievirus B (coxsackievirus B): growth inhibition
diarrhea outcome (enterovirus; Example 11 patient, oxymatrine 200 mg bid): resolved completely in a few days
diarrhea outcome (enterovirus; Example 12 patient): resolved within one week
Th1 cytokines gene expression (interleukin-2, interleukin-12, interleukin-15) [1, 6]: significant increase
regulatory Th2 cytokine gene expression (interleukin-10) [1, 6]: significant decrease
increase of the interleukin-12P35+P40/interleukin-10 gene expression ratio ([1]; seven responders of n=17 CFS patients, pre-oxymatrine vs during therapy (FIG. 5)): greater than 2 fold
interleukin-12P35+P40/interleukin-10 gene expression ratio ([1]; ten non-responders of n=17 CFS patients (FIG. 5)): remained the same or decreased
outbreaks of shingles [2]: less often and not as severe
clinical outcome ([2]; three months): went back to full-time work
relapse after therapy ([3]; Example 2 patient): had not relapsed for at least one year
clinical outcome ([3]; Example 2 patient, three months after finishing the medication): went back to full-time work
laboratory studies including CBC and complete chemistry panel during therapy ([3]; Example 2 patient, calcium resolved after stopping hydrochlorothiazide): normal except mildly elevated calcium levels
clinical outcome ([3]; Example 3 patient, after taking oxymatrine for six months): felt well
routine laboratory tests including CBC, chemistry panel and CPK ([3]; Example 3 patient, one week after starting oxymatrine): normal
myalgia pain score ([3]; Example 3 patient, three days after starting 300 mg bid, 7/10 before): 10/10
laboratory tests while on therapy ([3]; Example 4 patient): normal
tolerability ([3]; Example 4 patient): tolerated well without any adverse reactions
clinical outcome ([3]; Example 4 patient, after taking the medication for six weeks): returned to full-time work
clinical outcome ([3]; Example 5 patient, three months later): able to return to part-time work and regular exercise
symptoms during therapy ([3]; Example 5 patient, two months on 500 mg per day, resolved after stopping oxymatrine): severe diffuse ulcerations of the mouth mucosa, increasing headache, sinus congestion and severe myalgia
elevation of liver enzymes ([4]; about two months after start, returned to normal within six weeks after dose tapering to 200 mg bid): 3.5 times normal values
repeat computed tomography scans of the chest ([4]; in vivo): healing and calcifications of the lesions
repeat bronchial washing culture ([4]; six months after onset of oxymatrine therapy, with anti-MAC medications): no growth of MAC
night sweats ([4]; within two months): decreased from twice a week to once every two weeks
